Molecular target: T1, Pancreatic triacylglycerol lipase (Sus scrofa, UniProt P00591)
T1 sequence (P00591 whole entry): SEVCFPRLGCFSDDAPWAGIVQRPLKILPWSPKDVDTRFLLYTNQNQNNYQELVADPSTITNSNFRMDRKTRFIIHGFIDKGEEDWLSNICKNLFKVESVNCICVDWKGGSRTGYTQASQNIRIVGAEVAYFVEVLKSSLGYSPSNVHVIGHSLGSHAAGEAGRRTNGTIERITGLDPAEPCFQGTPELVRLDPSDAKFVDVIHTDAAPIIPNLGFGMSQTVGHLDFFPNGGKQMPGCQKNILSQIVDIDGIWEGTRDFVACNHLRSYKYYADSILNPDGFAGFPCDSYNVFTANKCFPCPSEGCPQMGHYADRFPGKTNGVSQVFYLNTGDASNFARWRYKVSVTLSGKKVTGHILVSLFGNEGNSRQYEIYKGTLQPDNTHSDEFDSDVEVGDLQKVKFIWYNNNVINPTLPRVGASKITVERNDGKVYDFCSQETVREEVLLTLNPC
Test: Inhibition Assay: Particularly, pancreatic lipase inhibiting activity was measured by the conventional method known to those in the art (Kim, J. H.; Kim, H. J.; Park, H. W.; Youn, S. H.; Choi, D. Y.; Shin, C. S. FEMS Microbiol. Lett. 2007, 276, 93.). To prepare the enzyme buffer, 30 mL (10 units) of pig pancreatic lipase solution (Sigma, St. Louis, Mo.) and 1 mM EDTA (pH 6.8) were mixed with 10 mM MOPS (morpholinepropanesulphonic acid), which was added to 850 mL of tris buffer (100 mM Tris-HCl and 5 mM CaCl2, pH 7.0). Then, 100 mL of the rotenoisin A or B of the present invention was mixed with the prepared enzyme buffer at the experimental concentration. […] 20 mL of substrate solution containing 20 mM p-nitrophenylbutyrate dissolved in dimethyl formaide was added to the enzyme buffer, followed by culture for 15 minutes at 37° C. that was the temperature adequate for enzyme reaction.

## C=C(C)[C@H]1Cc2c(ccc3c2OC2COc4cc(OC)c(OC)cc4C2[C@@]32CO2)O1 (stereo partly specified)
  IC50: 6.3 µM

From ChEMBL document CHEMBL3886681, “Rotenone derivatives and a use thereof” (2016)
